Measured values: patent US9475779B2, “Substituted bicyclic dihydropyrimidinones and their use as inhibitors of neutrophil elastase activity” (priority 2014, dated 2016)
Values after ≈ are worked out from the molar mass of the structure shown. Like-named read-outs stand apart in the source and are kept apart here.

Columns and labels:
[1] = biological target: cytochrome P450 2C19 (Homo sapiens (Human), UniProt P33261); assay: biochemical
[2] = biological target: hERG potassium channel (Homo sapiens (Human), UniProt Q12809); assay: in vitro
[3] = biological target: cytochrome P450 2C8 (Homo sapiens (Human), UniProt P10632); assay: biochemical
Sequence of cytochrome P450 2C8 (P10632 whole entry, looked up): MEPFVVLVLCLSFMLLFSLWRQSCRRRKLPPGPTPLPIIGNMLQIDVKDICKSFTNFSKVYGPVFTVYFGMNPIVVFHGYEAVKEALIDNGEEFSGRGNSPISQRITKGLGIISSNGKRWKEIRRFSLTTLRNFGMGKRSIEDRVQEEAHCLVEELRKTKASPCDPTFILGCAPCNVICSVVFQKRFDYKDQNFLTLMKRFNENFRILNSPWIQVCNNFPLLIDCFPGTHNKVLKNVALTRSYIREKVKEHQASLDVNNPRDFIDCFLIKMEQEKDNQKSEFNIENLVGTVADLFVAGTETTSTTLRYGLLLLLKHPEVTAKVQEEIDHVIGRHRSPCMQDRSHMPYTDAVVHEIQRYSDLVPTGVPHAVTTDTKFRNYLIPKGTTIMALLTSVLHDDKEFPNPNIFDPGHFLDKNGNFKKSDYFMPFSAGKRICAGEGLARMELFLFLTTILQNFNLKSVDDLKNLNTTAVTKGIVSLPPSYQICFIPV

[4] = physchem; format: physicochemical; settings: for solubility at 24 h: McIlvaine buffer pH 6.8 containing 2.5% DMSO, pH 6.8, aqueous buffer, kinetic from dmso stock, McIlvaine buffer pH 6.8, 2.5% DMSO
[5] = biological target: T1, neutrophil elastase (Homo sapiens (Human), UniProt P08246); assay: biochemical; format: biochemical
T1 sequence (P08246 whole entry, looked up): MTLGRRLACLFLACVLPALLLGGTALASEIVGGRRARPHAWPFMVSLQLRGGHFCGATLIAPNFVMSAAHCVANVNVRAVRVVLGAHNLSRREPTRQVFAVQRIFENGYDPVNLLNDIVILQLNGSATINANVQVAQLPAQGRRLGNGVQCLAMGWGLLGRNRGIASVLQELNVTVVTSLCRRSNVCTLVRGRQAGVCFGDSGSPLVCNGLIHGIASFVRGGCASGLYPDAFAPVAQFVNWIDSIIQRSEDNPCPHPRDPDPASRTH
Procedure: Human Neutrophil Elastase Assay
All other materials were of the highest grade commercially available.
The following buffers were used: Compound buffer: 100 mM Tris, 500 mM NaCl, adjusted to pH 7.5; Assay buffer: 100 mM Tris, 500 mM NaCl, adjusted to pH 7.5, containing 0.01% BSA.
Assay conditions: Test compounds were prediluted in DMSO and subsequently in compound buffer (5% DMSO final). […] After inactivation of the enzyme, fluorescence intensities were measured at 380 nm excitation and 460 nm emission wavelengths.
Each plate contains wells with a high value control (DMSO+enzyme+substrate) and wells with a low value control (DMSO+inactivated enzyme+substrate). IC50 values were estimated using a sigmoidal concentration response curve with variable slope. Means of low values were taken as 0%, means of high values as 100%.

[6] = biological target: cytochrome P450 2C9 (Homo sapiens (Human), UniProt P11712); assay: biochemical
Sequence of cytochrome P450 2C9 (P11712 whole entry, looked up): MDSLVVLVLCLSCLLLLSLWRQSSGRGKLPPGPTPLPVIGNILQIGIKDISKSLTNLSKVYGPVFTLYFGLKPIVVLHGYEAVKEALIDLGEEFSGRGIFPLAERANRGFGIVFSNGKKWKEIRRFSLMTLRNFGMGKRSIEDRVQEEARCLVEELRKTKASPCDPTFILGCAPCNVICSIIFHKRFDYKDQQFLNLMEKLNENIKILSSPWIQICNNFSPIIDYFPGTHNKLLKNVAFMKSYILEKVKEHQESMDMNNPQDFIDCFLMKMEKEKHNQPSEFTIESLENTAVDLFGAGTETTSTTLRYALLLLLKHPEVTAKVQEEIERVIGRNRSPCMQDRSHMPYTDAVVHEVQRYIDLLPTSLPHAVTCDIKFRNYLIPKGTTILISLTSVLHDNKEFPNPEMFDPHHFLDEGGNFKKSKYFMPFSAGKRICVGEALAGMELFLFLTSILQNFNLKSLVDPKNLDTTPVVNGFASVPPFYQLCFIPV

[7] = in vitro; format: in vitro ADME; settings: human, pH 7.2, 37° C.; for Papp A→B at 10 μM: Caco-2, pH 7.2, Caco-2, apical-to-basal, read-out: PEAB; for Papp B→A at 10 μM: Caco-2, pH 7.2, Caco-2, basal-to-apical, read-out: PEBA
[8] = biological target: T1, neutrophil elastase; assay: biochemical
[9] = Metabolic stability with human liver microsomes; format: in vitro ADME; settings: for half-life at 1 μM: human, pH 7.6, pooled human liver microsomes, read-out: t1/2 INVITRO
[10] = test system: Caco-2 cells; assay: in vitro; format: in vitro ADME; settings: pH 7.2
[11] = pooled human liver microsomes, 1 μM test compound, 37° C.

Sequence of cytochrome P450 2C19 (P33261 whole entry, looked up): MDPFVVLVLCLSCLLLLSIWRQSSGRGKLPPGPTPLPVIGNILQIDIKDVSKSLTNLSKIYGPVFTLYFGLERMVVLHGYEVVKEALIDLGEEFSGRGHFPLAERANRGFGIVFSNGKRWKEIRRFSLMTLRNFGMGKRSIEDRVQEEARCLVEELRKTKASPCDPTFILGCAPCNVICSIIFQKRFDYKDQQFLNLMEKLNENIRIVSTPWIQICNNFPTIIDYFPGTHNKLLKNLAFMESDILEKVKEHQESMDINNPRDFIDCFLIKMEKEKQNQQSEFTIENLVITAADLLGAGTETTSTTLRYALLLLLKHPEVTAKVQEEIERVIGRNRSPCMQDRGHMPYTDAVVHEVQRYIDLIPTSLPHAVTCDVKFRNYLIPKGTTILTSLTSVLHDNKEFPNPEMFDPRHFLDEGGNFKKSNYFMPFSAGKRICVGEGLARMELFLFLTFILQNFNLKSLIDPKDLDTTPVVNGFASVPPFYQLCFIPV

## CN1C(=O)N(c2cccc(C(F)(F)F)c2)C2=C(C(=O)CC2)C1c1ccc(C#N)cc1CO (single isomer, unassigned) [Example A.1A, 3-Hydroxymethyl-4-[3-methyl-2,5-dioxo-1-(3-trifluoromethyl-phenyl)-2,3,4,5,6,7-hexahydro-1H-cyclopentapyrimidin-4-yl]-benzonitrile]
[1]
  IC50: > 50000 nM
[2]
  inhibition at 10 µM: 7%
[3]
  IC50: > 50000 nM
[4]
  solubility at 24 h: 58 µg/mL (≈ 131 µM)
[5]; IC50
  IC50: < 1 nM
[6]
  IC50: > 50000 nM
[7]
  Papp A→B at 10 μM: 53 ×10⁻⁶ cm/s
  Papp B→A at 10 μM: 98 ×10⁻⁶ cm/s
[8]
  EC50: 2 nM

## CN1C(=O)N(c2cccc(C(F)(F)F)c2)C2=C(C(=O)CC2)C1c1ccc(C#N)cc1S(=O)(=O)CCCO (single isomer, unassigned) [Example B.1.3A]
[4]
  solubility at 24 h: 93 µg/mL (≈ 174 µM)
[7]
  Papp A→B at 10 μM: 9.9 ×10⁻⁶ cm/s
  Papp B→A at 10 μM: 130 ×10⁻⁶ cm/s
[9]; [11]
  half-life at 1 μM: 1.52 h

## CN1C(=O)N(c2cccc(C(F)(F)F)c2)C2=C(C(=O)CC2)[C@H]1c1ccc(C#N)cc1[S+](C)[O-] (single isomer, unassigned) [Example C.1B, 3-Methanesulfinyl-4-[3-methyl-2,5-dioxo-1-(3-trifluoromethyl-phenyl)-2,3,4,5,6,7-hexahydro-1H-cyclopentapyrimidin-4-yl]-benzonitrile]
[4]
  Aqueous solubility: 61 µg/mL
[5]; read-out: IC50
  IC50: < 1 nM
[7]
  Papp B→A at 10 μM: 41 ×10⁻⁶ cm/s
[10]
  PEAB: 3.7 ×10⁻⁶ cm/s
[8]
  EC50: 1 nM
[9]; [11]
  t1/2 INVITRO: 1.55 h

## CC[S+]([O-])c1cc(C#N)ccc1C1C2=C(CCC2=O)N(c2cccc(C(F)(F)F)c2)C(=O)N1C (single isomer, unassigned) [Example C.5.1, 3-Ethanesulfinyl-4-[3-methyl-2,5-dioxo-1-(3-trifluoromethyl-phenyl)-2,3,4,5,6,7-hexahydro-1H-cyclopentapyrimidin-4-yl]-benzonitrile]
[4]
  solubility at 24 h: 86 µg/mL (≈ 176 µM)
[7]
  Papp B→A at 10 μM: 57 ×10⁻⁶ cm/s
[10]
  PEAB: 7.1 ×10⁻⁶ cm/s
[9]; [11]
  half-life at 1 μM: 1.83 h

## CC[S+]([O-])c1cc(C#N)ccc1C1C2=C(CCC2=O)N(c2cccc(C(F)(F)F)c2)C(=O)N1C (single isomer, unassigned) [Example C.5.2, 3-Ethanesulfinyl-4-[3-methyl-2,5-dioxo-1-(3-trifluoromethyl-phenyl)-2,3,4,5,6,7-hexahydro-1H-cyclopentapyrimidin-4-yl]-benzonitrile]
[4]
  Aqueous solubility: 69 µg/mL
[10]
  PEAB: 16 ×10⁻⁶ cm/s
  PEBA: 82 ×10⁻⁶ cm/s
[9]
  t1/2 INVITRO: >2.17 h

## CN1C(=O)N(c2ccnc(C(F)(F)F)c2)C2=C(C(=O)CC2)C1c1ccc(C#N)cc1S(C)(=O)=O (single isomer, unassigned) [Example D.1A, 3-Methanesulfonyl-4-[3-methyl-2,5-dioxo-1-(2-trifluoromethyl-pyridin-4-yl)-2,3,4,5,6,7-hexahydro-1H-cyclopentapyrimidin-4-yl]-benzonitrile]
[2]
  inhibition at 10 µM: 8%
[7]
  Papp A→B at 10 μM: 19 ×10⁻⁶ cm/s
  Papp B→A at 10 μM: 81 ×10⁻⁶ cm/s
[9]; [11]
  half-life at 1 μM: > 2.17 h

## CCS(=O)(=O)c1cc(C#N)ccc1C1C2=C(CCC2=O)N(c2ccnc(C(F)(F)F)c2)C(=O)N1C (single isomer, unassigned) [Example D.3B, 3-Ethanesulfonyl-4-[3-methyl-2,5-dioxo-1-(2-trifluoromethyl-pyridin-4-yl)-2,3,4,5,6,7-hexahydro-1H-cyclopentapyrimidin-4-yl]-benzonitrile]
[5]; read-out: IC50
  IC50: 1.4 nM
[7]
  Papp A→B at 10 μM: 21 ×10⁻⁶ cm/s
  Papp B→A at 10 μM: 85 ×10⁻⁶ cm/s
[8]
  EC50: 1 nM
[9]; [11]
  half-life at 1 μM: 2 h

## CCNC(=O)N1C(=O)N(c2ccnc(C(F)(F)F)c2)C2=C(C(=O)CC2)C1c1ccc(C#N)cc1S(=O)(=O)CC (single isomer, unassigned) [Example D.4.1A, 4-(4-cyano-2-ethanesulfonyl-phenyl)-2,5-dioxo-1-(2-trifluoromethyl-pyridin-4-yl)-1,2,4,5,6,7-hexahydro-cyclopentapyrimidine-3-carboxylic acid ethylamide]
[4]
  solubility at 24 h: 81 µg/mL (≈ 144 µM)
[5]; IC50
  IC50: < 1 nM
[7]
  Papp A→B at 10 μM: 3.6 ×10⁻⁶ cm/s
  Papp B→A at 10 μM: 61 ×10⁻⁶ cm/s
[8]
  EC50: < 1 nM
[9]; [11]
  half-life at 1 μM: > 2.17 h

## CCS(=O)(=O)c1cc(C#N)ccc1C1NC(=O)N(c2cccc(C(F)F)c2)C2=C1C(=O)CC2 (single isomer, unassigned) [Example D.5A, 4-[1-(3-Difluoromethyl-phenyl)-2,5-dioxo-2,3,4,5,6,7-hexahydro-1H-cyclopentapyrimidin-4-yl]-3-ethanesulfonyl-benzonitrile]
[4]
  solubility at 24 h: 67 µg/mL (≈ 142 µM)
[5]; IC50
  IC50: 2.2 nM
[7]
  Papp A→B at 10 μM: 7.5 ×10⁻⁶ cm/s
  Papp B→A at 10 μM: 78 ×10⁻⁶ cm/s
[8]
  EC50: 1 nM
[9]; [11]
  half-life at 1 μM: > 2.17 h

## CNC(=O)N1C(=O)N(c2cc(C(F)(F)F)ccn2)C2=C(C(=O)CC2)C1c1ccc(C#N)cc1S(C)(=O)=O (centres unmarked) [D.4.4]
[5]; read-out: IC50
  IC50: < 1 nM
[7]
  Papp A→B at 10 μM: 3.1 ×10⁻⁶ cm/s
  Papp B→A at 10 μM: 60 ×10⁻⁶ cm/s
[8]
  EC50: 2 nM
[9]; [11]
  half-life at 1 μM: > 2.17 h

## CCNC(=O)N1C(=O)N(c2cc(C(F)(F)F)ccn2)C2=C(C(=O)CC2)C1c1ccc(C#N)cc1S(C)(=O)=O (centres unmarked) [D.4.5]
[4]
  solubility at 24 h: 78 µg/mL (≈ 142 µM)
[5]; read-out: IC50
  IC50: < 1 nM
[7]
  Papp A→B at 10 μM: 7.3 ×10⁻⁶ cm/s
  Papp B→A at 10 μM: 67 ×10⁻⁶ cm/s
[8]
  EC50: 1 nM
[9]; [11]
  half-life at 1 μM: > 2.17 h

## CN1C(=O)N(c2cccc(C(F)(F)F)c2)C2=C(C(=O)CC2)C1c1ccc(C#N)cc1C(C)(C)O (centres unmarked) [Example A.2, 3-(1-Hydroxy-1-methyl-ethyl)-4-[3-methyl-2,5-dioxo-1-(3-trifluoromethyl-phenyl)-2,3,4,5,6,7-hexahydro-1H-cyclopentapyrimidin-4-yl]-benzonitrile]
[5]; read-out: IC50
  IC50: < 1 nM
[7]
  Papp A→B at 10 μM: 92 ×10⁻⁶ cm/s
  Papp B→A at 10 μM: 80 ×10⁻⁶ cm/s
[8]
  EC50: 1 nM
[9]; [11]
  half-life at 1 μM: > 2.17 h

## CC(O)c1cc(C#N)ccc1C1C2=C(CCC2=O)N(c2cccc(C(F)(F)F)c2)C(=O)N1C (centres unmarked) [Example A.3, 3-(1-Hydroxy-ethyl)-4-[3-methyl-2,5-dioxo-1-(3-trifluoromethyl-phenyl)-2,3,4,5,6,7-hexahydro-1H-cyclopentapyrimidin-4-yl]-benzonitrile]
[4]
  solubility at 24 h: 65 µg/mL (≈ 143 µM)
[7]
  Papp A→B at 10 μM: 67 ×10⁻⁶ cm/s
  Papp B→A at 10 μM: 87 ×10⁻⁶ cm/s
[9]; [11]
  half-life at 1 μM: > 2.17 h

## CN1C(=O)N(c2cccc(C(F)(F)F)c2)C2=C(C(=O)CC2)[C@H]1c1ccc(C#N)cc1S(=O)(=O)CCO [Example B.1.2B]
[1]
  IC50: > 50000 nM
[2]
  inhibition at 10 µM: 12%
[3]
  IC50: > 50000 nM
[4]
  solubility at 24 h: 73 µg/mL (≈ 141 µM)
[5]; IC50
  IC50: < 1 nM
[6]
  IC50: > 50000 nM
[7]
  Papp A→B at 10 μM: 12 ×10⁻⁶ cm/s
  Papp B→A at 10 μM: 120 ×10⁻⁶ cm/s
[8]
  EC50: 1 nM
[9]; [11]
  half-life at 1 μM: > 2.17 h

## CCS(=O)(=O)c1cc(C#N)ccc1C1C2=C(CCC2=O)N(c2cccc(C(F)F)c2)C(=O)N1C(=O)NC (centres unmarked) [Example D.7, 4-(4-Cyano-2-ethanesulfonyl-phenyl)-1-(3-difluoromethyl-phenyl)-2,5-dioxo-1,2,4,5,6,7-hexahydro-cyclopentapyrimidine-3-carboxylic acid methylamide]
[5]; read-out: IC50
  IC50: < 1 nM

## CS(=O)(=O)c1cc(C#N)ccc1C1C2=C(CCC2=O)N(c2cccc(C(F)(F)F)c2)C(=O)N1CCO (centres unmarked) [Example E.1, 4-[3-(2-Hydroxy-ethyl)-2,5-dioxo-1-(3-trifluoromethyl-phenyl)-2,3,4,5,6,7-hexahydro-1H-cyclopentapyrimidin-4-yl]-3-methanesulfonyl-benzonitrile]
[5]; Neutrophil Elastase assay, substrate MeOSuc-Ala-Ala-Pro-Val-AMC, read-out: IC50
  IC50: < 1 nM
